Data on 14 compounds can be found in US11352352B2, “Aminopyrimidine compound, preparation method therefor and use thereof” (BEIJING ADAMADLE BIOTECHNOLOGY LIMITED LIABILITY COMPANY, priority 2017, dated 2022).

Common to all, as to assay: Cell proliferation inhibition experiment, CellTiter-Glo (CTG) method
Common to all, as to format: cell-based
In general terms: In ATP-based viability assays light output follows the ATP content of the culture.

For one assay, the system named is A-431. Particulars: Homo sapiens, A-431, 72 h, A-431 cells, 3 days. A digest of the protocol: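 Log-phase cells (viability >90%) were plated and incubated overnight, then dosed in triplicate across nine 3-fold concentrations. The top dose was 30 μM on A-431 and 1.111 μM on NCI-H1975 and PC-9. Survival after 3 days was measured by CellTiter-Glo and IC50 derived by non-linear regression.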

Another assay has as its system PC-9. Conditions: Homo sapiens, PC-9, 72 h, PC-9 cells, 3 days. A digest of the protocol:
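Cells in log-phase growth (viability above 90% by trypan blue) were seeded at 90 μL per well in black-walled, clear-bottom 96-well plates and incubated overnight at 37° C., 5% CO2. A T0 plate was read the next day. Test compounds were added at nine concentrations in triplicate with a solvent control. Viability was measured by CellTiter-Glo luminescence on EnVision, and IC50 came from non-linear S-curve fitting in GraphPad Prism 5.0.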

Another assay has as its system NCI-H1975. Particulars: for IC50: Homo sapiens, NCI-H1975, 72 h, NCI-H1975 cells, CTG, 3 days; for A-431/NCI-H1975 Selectivity: ratio of A-431 IC50 to NCI-H1975 IC50. A digest of the protocol: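 NCI-H1975 cells with viability above 90% by trypan blue were seeded at 90 μL per well in black 96-well plates and incubated overnight at 37° C., 5% CO2. Compounds were added at nine concentrations in triplicate, and viability was measured with CellTiter-Glo luminescence on EnVision. IC50 came from non-linear S-curve fitting in GraphPad Prism 5.0.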

As a reminder, the IC50 is the midpoint of a concentration-inhibition curve. Read a high IC50 as weaker potency in that assay. Take `C=CC(=O)Nc1c(OCCN(C)C)cc(OC)c(Nc2cc(-c3ccc4c(cnn4C)c3)ncn2)c1F` [compound 178]: the IC50 was determined as 2000 nM with A-431, 34.6 nM with PC-9 and 42.9 nM in the assay on NCI-H1975. The “A-431/NCI-H1975 Selectivity” value in the assay on NCI-H1975 came out at 46.7.
On to `C=CC(=O)Nc1cc(Nc2cc(-c3ccc4cnn(C)c4c3)ncn2)c(OC(F)F)cc1NCCN(C)C` [compound 181], for which the IC50 with A-431 is 1680 nM; in the assay with PC-9, 21.4 nM; in the assay with NCI-H1975, 45.8 nM. The “A-431/NCI-H1975 Selectivity” value with NCI-H1975 is reported as 36.7.
For `C=CC(=O)Nc1cc(Nc2cc(-c3ccc4cnn(C)c4c3)ncn2)c(OC(F)F)cc1N1CCN(CCN(C)C)CC1` [compound 182] the same measures were 1740 nM, 55.9 nM, 53.3 nM and 32.6.
With `C=CC(=O)Nc1cc(Nc2cc(-c3ccc4cnn(C)c4c3)ncn2)c(OC(F)F)cc1N(C)CCN(CC)CC` [compound 183], the IC50 in the assay on A-431 came to 984 nM; in the assay on PC-9 it was 69.8 nM; in the assay on NCI-H1975, 40.4 nM. In addition, the “A-431/NCI-H1975 Selectivity” value in the assay with NCI-H1975 is reported as 24.4.
With `C=CC(=O)Nc1cc(Nc2cc(-c3ccc4cnn(C)c4c3)ncn2)c(OC)cc1N1CCN(C2CCN(C)CC2)CC1` [compound 184], the IC50 in the assay on A-431 turned out to be 1060 nM; in the assay on PC-9, 32.6 nM; with NCI-H1975, 49.5 nM. Besides, the “A-431/NCI-H1975 Selectivity” value in the assay on NCI-H1975 worked out at 21.3.
On to `C=CC(=O)Nc1cc(Nc2cc(-c3ccc4c(cnn4C)c3)ncn2)c(OC(F)F)cc1OCCN1CCN(C)CC1` [compound 185], for which the IC50 in the assay on A-431 was determined as 2030 nM; with PC-9, 43.7 nM; in the assay on NCI-H1975, 53.8 nM. In addition, the “A-431/NCI-H1975 Selectivity” value with NCI-H1975 is 37.8.
The corresponding values for `C=CC(=O)Nc1cc(Nc2cc(-c3ccc4c(cnn4C)c3)ncn2)c(OC)cc1OCCN(C)C(C)C` [compound 186] are 2570 nM, 50.2 nM, 76.1 nM and 33.7.
For `C=CC(=O)Nc1cc(Nc2cc(-c3ccc4c(cnn4C)c3)ncn2)c(OC(F)F)cc1OCCN(C)C(C)C` [compound 187] the same measures were 2410 nM, 46.8 nM, 53 nM and 45.4.
The corresponding values for `C=CC(=O)Nc1cc(Nc2cc(-c3ccc4cnn(C)c4c3)ncn2)c(OC)cc1OCCN(C)C(C)C` [compound 188] are 2790 nM, 55.9 nM, 114 nM and 24.5.
Take `C=CC(=O)Nc1cc(Nc2cc(-c3ccc4c(cnn4C)c3)ncn2)c(OC)cc1OCCN1CCCCC1` [compound 189]: the IC50 in the assay on A-431 worked out at 2640 nM; in the assay on PC-9, 24.1 nM; with NCI-H1975, 109 nM. The “A-431/NCI-H1975 Selectivity” value in the assay with NCI-H1975 is 24.3.
Take `C=CC(=O)Nc1cc(Nc2cc(-c3ccc4nc(C)sc4c3)ncn2)c(OC)cc1N1CCN(CCN(C)C)CC1` [compound 190]: the IC50 in the assay on A-431 was determined as 2080 nM; with PC-9 it was 24.7 nM; with NCI-H1975, 108 nM. Moreover, in the assay with NCI-H1975, the “A-431/NCI-H1975 Selectivity” value turned out to be 19.3.
The corresponding values for `C=CC(=O)Nc1cc(Nc2cc(-c3ccc4nc(C)sc4c3)ncn2)c(OC)cc1N1CCC(N(CC)CC)CC1` [compound 191] are 1760 nM, 56.4 nM, 91.8 nM and 19.2.
`C=CC(=O)Nc1cc(Nc2cc(-c3cc4cnn(C)c4cc3F)ncn2)c(OC)cc1N1C[C@@H](C)N(C)[C@@H](C)C1` [compound 192]: the IC50 in the assay with A-431 amounted to 1840 nM; with PC-9 it was 33 nM; in the assay with NCI-H1975 it was 47 nM. For the same compound, in the assay with NCI-H1975, the “A-431/NCI-H1975 Selectivity” value is 39.2.
The corresponding values for `C=CC(=O)Nc1cc(Nc2cc(-c3cc4cnn(C)c4cc3F)ncn2)c(OC)cc1N1CCC(N(CC)CC)CC1` [compound 193] are 1480 nM, 30.9 nM, 52.8 nM and 28.0.
